Data from PubChem BioAssay (NCI).
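Step 1: Grow cells in 96-well plates. Step 2: Expose to compound for 48 hours at 5 concentrations. Step 3: Interpolate endpoints linearly; if unreached, use highest concentration. Here, GI50 denotes the concentration required for 50% inhibition of growth. TGI: concentration producing complete growth inhibition.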 Where a SMILES comes first, the peptide text is derived from it. [ ]: non-standard residue; d: D form. The star is where a group is joined. ξ: configuration not given here. ξF = NC(Cc1ccccc1)C(=O)O; Cbz = O=C(OCc1ccccc1)*; Aib = CC(C)(N)C(=O)O

Tests used:
Assay in all cases: NCI anticancer screen, dose series, 48 h
IGROV1 ovarian = system: IGROV1 ovarian
SK-MEL-2 melanoma = system: SK-MEL-2 melanoma
MOLT-4 leukemia = system: MOLT-4 leukemia
SK-MEL-5 melanoma = system: SK-MEL-5 melanoma
MDA-MB-435 = system: MDA-MB-435
MALME-3M melanoma = system: MALME-3M melanoma
T-47D breast = system: T-47D breast
NCI-H460 lung = system: NCI-H460 lung
OVCAR-3 ovarian = system: OVCAR-3 ovarian
SF-268 CNS = system: SF-268 CNS

Structure (SMILES)	TGI (IGROV1 ovarian) [µM]	TGI (SK-MEL-2 melanoma) [µM]	TGI (MOLT-4 leukemia) [µM]	TGI (SK-MEL-5 melanoma) [µM]	TGI (MDA-MB-435) [µM]	TGI (MALME-3M melanoma) [µM]	TGI (T-47D breast) [µM]	TGI (NCI-H460 lung) [µM]	TGI (OVCAR-3 ovarian) [µM]	GI50 (SF-268 CNS) [µM]	TGI (SF-268 CNS) [µM]	GI50 (IGROV1 ovarian) [µM]	GI50 (SK-MEL-2 melanoma) [µM]	GI50 (MOLT-4 leukemia) [µM]	GI50 (MALME-3M melanoma) [µM]	GI50 (NCI-H460 lung) [µM]	GI50 (OVCAR-3 ovarian) [µM]	GI50 (SK-MEL-5 melanoma) [µM]	GI50 (MDA-MB-435) [µM]	GI50 (T-47D breast) [µM]
CCOC(=O)CCC(NC(=O)OCc1ccccc1)C(=O)NC(CCC(=O)OCC)C(=O)NNC(=O)OC(C)(C)C (stereo not drawn)	> 100	> 100	> 100	> 100	> 100	> 100	> 100	> 100	> 100	–	–	–	–	–	–	–	–	–	–	–
C[CH2][Ge]([CH2]C)([CH2]C)[O]C(=O)CCC(=O)[O][Ge]([CH2]C)([CH2]C)[CH2]C	> 100	> 100	> 100	–	–	> 100	–	> 100	> 100	> 100	> 100	> 100	> 100	39	79.3	24.8	66	–	–	–
COC(=O)C(C)(C)NC(=O)C(Cc1ccccc1)NC(=O)C(C)(C)NC(=O)OCc1ccccc1 (stereo not drawn) (Cbz-[Aib]-[ξF]-[Aib]-OMe)	> 100	–	> 100	> 100	> 100	> 100	> 100	> 100	> 100	–	> 100	–	–	–	–	–	–	–	–	–
N=C(N)c1ccc(-c2ccc(-c3cccs3)s2)s1	–	–	–	2.34	–	3.67	–	0.229	–	1.79	3.48	–	–	–	1.71	–	–	1.02	–	–
C(=N\OCCc1ccccc1)/c1cccnc1	> 100	> 100	> 100	> 100	> 100	> 100	> 100	> 100	> 100	–	> 100	–	–	–	–	–	–	–	–	–
NCCSCc1ccccc1Cl	> 100	87.5	86.3	> 100	> 100	> 100	> 100	> 100	82.9	–	> 100	–	–	–	–	–	–	–	–	–
COc1cc(-c2n/c(=C\c3c(O)[nH]c4cc(Cl)ccc34)cc3c2=Nc2ccccc2-3)cc(OC)c1OC	51.1	12.3	8.35	23	51.3	9.41	18.5	81.7	6.69	2.72	10.5	5.56	2.51	2.72	2.98	4.56	2.13	3.98	6.39	4.19
Cc1ccc(C(O)(c2ccc(C)cc2)c2ccccn2)cc1	> 100	> 100	–	> 100	–	> 100	–	> 100	> 100	–	> 100	–	–	–	–	–	–	–	–	–
CC(=O)ON1C(=O)c2cccc3cccc(c23)C1=O	> 100	67.6	43	28.2	39.8	45	63.8	41.7	68.9	–	> 100	–	–	–	–	–	–	–	–	–
c1cncc(O[Si](Oc2cccnc2)(Oc2cccnc2)Oc2cccnc2)c1	> 100	> 100	> 100	> 100	–	> 100	–	> 100	> 100	–	–	–	–	–	–	–	–	–	–	–
